Source: paper PMC3334918, “Mutagenesis and Functional Studies with Succinate Dehydrogenase Inhibitors in the Wheat Pathogen Mycosphaerella graminicola” (PLoS ONE, 2012)

Assays:
[1] = target: succinate dehydrogenase (SDH), WT (IPO323) (Zymoseptoria tritici (Mycosphaerella graminicola), UniProt F9X9V6+F9XG45+F9XH52); experiment: in vitro succinate: Q0/DCPIP activity test, purified mitochondria; assay type: biochemical; details: read-out: IC50 in vitro, ±S.E. (triplicate)
Experimental: (§1) To explore the sensitivity profiles conferred by amino acid substitutions at the cellular and mitochondrial level, we determined sensitivity towards 4 different compounds for 26 of the identified substitution types both in vivo using liquid culture growth (AE media) and in vitro using purified mitochondria and the succinate: Q0/DCPIP activity test (Table 3). […] Resistance factors (RF) were determined as the ratio IC50mutant/IC50WT. […] Qp site mutations are well known to influence SDH enzyme activity and stability upon catalysis, [13], [38], [41].
Strains were grown in 1 liter TSM40 units. Cultures were inoculated at 0.05 OD600 nm and grown on a reciprocal shaker (110 rpm, 22°C) for 5 days. Cells were harvested by vacuum filtration and disrupted in liquid nitrogen using a mortar and pestle. Resultant powder was re-suspended to 10% w/v in mitochondrial extraction buffer (10 mM KHPO4 pH7.2; 10 mM KCl, 10 mM MgCl2, 0.5 M sucrose, 0.2 mM EDTA, 2 mM PMSF). Extract was clarified by centrifugation (5,000 g, 4°C for 10 minutes, 2 times), intact mitochondria were then pelleted at 10,000 g for 20 minutes at 4°C. […] This volume was transferred to conical 1.5 ml tubes and re-centrifuged, 10,000 g for 10 minutes at 4°C. […] Mitochondrial suspensions were brought to a final concentration of 10 mg ml^−1 in extraction buffer and stored at −80°C until used.
Mitochondrial suspensions were incubated at 30°C for 30 minutes in extraction buffer supplemented with 10 mM succinate prior to enzymatic measurements.
A reaction plate was equilibrated for 10 minutes at 30°C before starting the reaction. DCPIP reduction was conducted at 30°C and monitored at 595 nm using a HTS7000 microtiterplate reader (Perkin Elmer). For calculations a molecular extinction coefficient of ε = 17 mM^−1 cm^−1 was used.
Inhibitor concentrations ranged between 1 mM and 0.95 nM with uniform 4× dilution factor steps (11 inhibitor concentrations+DMSO control). 96 wells plates were pre equilibrated at reaction temperature (30°C) for 10 minutes before the reactions were started by the addition of 5 µl preactivated M. graminicola mitochondrial suspension. Calculated absorbance slopes (OD/hour) were used for IC50 calculations using Graphpad Prism 5.0 software non linear curve fitting against log inhibitor concentrations.

[2] = examination of supplemented AE agar plates for precipitate; assay type: physicochemical; details: AE agar plates supplemented with 150 µM (5×MSC), developed over time
[3] = test system: M. graminicola WT (IPO323); experiment: microbe, parasite or virus in culture; assay type: cell-based, Mycosphaerella graminicola; details: Zymoseptoria tritici; WT (IPO323), liquid culture growth, ±S.E. (triplicate); read-out: IC50 in vivo
Experimental: as §1
(§2) Conidial cells were collected from 4 day old V8 agar plates (cultured at 18°C in the dark) using liquid AE and a cell spreader. Cell density was determined and cells re-suspended to a concentration of 5×10^5 cells ml^−1 in AE media. Sterile 96 wells microtiter plates with lids (Costar) were inoculated with 198 µl of this cell suspension (10^5 cells per well) and 2 µl of inhibitor (100× in DMSO). Final inhibitor concentrations were between 0.95 nM and 1 mM with uniform 4× dilution factor steps (11 inhibitor concentrations+1 DMSO control). Plates were incubated for 6 days at 19°C in the dark before cells were re-suspended and measured for growth (OD600 nm). IC50 values were determined by non linear curve fitting on the basis of measured OD values versus log inhibitor concentrations (GraphPad Prism 5.0 software).

[4] = test system: M. graminicola isolate IPO323; experiment: UV mutagenesis and selection of resistant colonies on carboxamide amended AE agar; assay type: cell-based, Mycosphaerella graminicola
Experimental: (§3) Selection plates were produced after adding 1% of a 100× DMSO solution of the active ingredients to pre-melted AE-agar.
Cells were harvested from 4 days old V8 agar plates and conidial cells were suspended in liquid AE. 10^7 cells were spread onto carboxamide amended AE agar plates and mutagenized using UV Stratalinker 2400 (Stratagene) with 75 mJ cm^−2 or 50 mJ cm^−2. […] Selection plates were incubated in the dark at 20°C for 14 days. Visible colonies were picked from the primary selection plate and re-grown on fresh selection media for 2 additional weeks under the same conditions.

[5] = test system: M. graminicola strain Cbx28 (SDHB_H267Y); experiment: in vivo sensitivity, liquid culture growth (AE media); assay type: cell-based, Mycosphaerella graminicola; details: M. graminicola SDHB_H267Y; compound A: data not shown
Experimental: as §1, §2

[6] = test system: wild type IPO323 M. graminicola strain; assay type: cell-based, Mycosphaerella graminicola; details: minimal concentration to fully inhibit growth of WT IPO323, AE agar, 10^7 cells, 2 weeks at 20°C in the dark
From the text: as §3

Sequence of succinate dehydrogenase (SDH), WT (IPO323) (F9XG45 entry or part of it): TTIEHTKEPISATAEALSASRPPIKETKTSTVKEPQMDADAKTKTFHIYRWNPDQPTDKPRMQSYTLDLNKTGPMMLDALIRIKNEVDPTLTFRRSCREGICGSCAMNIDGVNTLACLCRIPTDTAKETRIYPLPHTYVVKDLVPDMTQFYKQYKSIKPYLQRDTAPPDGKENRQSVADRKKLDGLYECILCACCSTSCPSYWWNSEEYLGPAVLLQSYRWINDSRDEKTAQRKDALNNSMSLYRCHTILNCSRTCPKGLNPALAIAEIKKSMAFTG
Sequence of succinate dehydrogenase (SDH), WT (IPO323) (F9X9V6 entry or part of it): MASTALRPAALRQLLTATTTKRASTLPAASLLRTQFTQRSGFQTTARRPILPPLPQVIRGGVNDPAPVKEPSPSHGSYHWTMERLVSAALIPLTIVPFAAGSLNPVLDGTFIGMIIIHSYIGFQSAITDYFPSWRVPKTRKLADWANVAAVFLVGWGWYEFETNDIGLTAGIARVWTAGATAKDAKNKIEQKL
Sequence of succinate dehydrogenase (SDH), WT (IPO323) (F9XH52 entry or part of it): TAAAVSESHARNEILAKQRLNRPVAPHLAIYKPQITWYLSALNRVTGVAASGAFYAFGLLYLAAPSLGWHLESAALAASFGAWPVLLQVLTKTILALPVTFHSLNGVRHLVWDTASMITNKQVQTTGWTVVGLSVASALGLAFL

Compound	IC50 [1] [nM]	precipitation in the media [2]	IC50 [3] [nM]	Frequency (of resistance development) ([4]; selection at MSC, UV treatment 50 mJ cm^−2)	Frequency (of resistance development) ([4]; selection at MSC, UV treatment 75 mJ cm^−2)	Frequency (of resistance development) ([4]; selection at […] MSC, UV treatment 50 mJ cm^−2)	Frequency (of resistance development) ([4]; selection at […] MSC, UV treatment 75 mJ cm^−2)	sensitivity / control of the SDHB_H267Y mutant compared to the WT [5]	Minimal selective concentration (MSC) [6]
O=C(Nc1ccccc1-c1ccc(Cl)cc1)c1cccnc1Cl [Boscalid]	60 ± 1.8	white precipitate	455 ± 47	–	–	–	–	–	–
CC1=C(C(=O)Nc2ccccc2)SCCO1 [Carboxin]	1160 ± 102	–	6470 ± 1080	–	–	–	–	–	–
CC(C)C1C2CCC1c1c(NC(=O)c3cn(C)cc3C(F)(F)F)cccc12 (centres unmarked) [compound A]	–	–	–	1.4E-07	2.1E-07	2.1E-07	1.9E-07	better control	compound A 100 µM (MSC)
O=C(NCCc1ncc(C(F)(F)F)cc1Cl)c1ccccc1C(F)(F)F [Fluopyram]	44 ± 2.2	–	584 ± 100	–	–	–	–	hypersensitivity	–
